Read-outs that look alike come from different tables or passages of the source. One block for each compound: values may come before it.
How the values were obtained:
[1] = test system: acetylated histone H-4 in T24 human bladder cancer cells; experiment: Histone H4 acetylation in whole cells by immunoblots; format: cell-based; details: 16 h
Outline: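 T24 cells were treated with HDAC inhibitors for 16 h; […] total histone protein was resolved by SDS/PAGE and immunoblotted with polyclonal anti-acetylated H4 antibody. ECL detection, with signal quantified by densitometry.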

[2] = test system: HCT116 cells; experiment: MTT assay; format: cell-based; details: Homo sapiens
Outline: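 Cells plated one day before dosing, then exposed to compound 72 h at 37 °C, 5% CO2. MTT at 0.5 mg/ml final for 4 h, solubilized in DMF/SDS buffer pH 4.7; OD converted to cell number from a standard growth curve.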

[3] = test system: HCT116 human colorectal carcinoma cells; experiment: Antitumor activity in HCT116 human colorectal tumor xenograft model in vivo; design: species or system BALB/c nude mice; details: Mus musculus, ip, HCT 116 colorectal tumor model, read-out: % Inhibition of Tumor Growth; for inhibition in vivo at 20 mg/kg: 20 mg/kg i.p.; for inhibition in vivo at 40 mg/kg: 40 mg/kg i.p.
Experimental: Eight to ten week old female BALB/c nude mice (Taconic Labs, Great Barrington, N.Y.) were injected subcutaneously in the flank area with 2×10^6 preconditioned HCT116 human colorectal carcinoma cells. Preconditioning of these cells was done by a minimum of three consecutive tumor transplantations in the same strain of nude mice. Subsequently, tumor fragments of approximately 30 mgs were excised and implanted subcutaneously in mice, in the left flank area, under Forene anesthesia (Abbott Labs, Geneve, Switzerland). When the tumors reached a mean volume of 100 mm^3, the mice were treated intravenously, subcutaneously, or intraperitoneally by daily injection, with a solution of the histone deacetylase inhibitor in an appropriate vehicle, such as PBS, DMSO/water, or Tween 80/water, at a starting dose of 10 mg/kg. The optimal dose of the HDAC inhibitor was established by dose response experiments according to standard protocols. Tumor volume was calculated every second day post infusion according to standard methods (e.g., Meyer et al., Int. J. Cancer 43: 851-856 (1989)). […] FIGS. 2-10 show the results of additional compounds tested.

[4] = molecular target: HDAC-1 (Homo sapiens, UniProt Q13547); experiment: Human HDAC-1 enzyme inhibition, Assay 2 (Boc-Lys(Ac)-AMC, Fluor-de-Lys fluorescence; compounds 604-617); format: biochemical; details: read-out: HDAC1 IC50
HDAC-1, sequence (Q13547 whole entry): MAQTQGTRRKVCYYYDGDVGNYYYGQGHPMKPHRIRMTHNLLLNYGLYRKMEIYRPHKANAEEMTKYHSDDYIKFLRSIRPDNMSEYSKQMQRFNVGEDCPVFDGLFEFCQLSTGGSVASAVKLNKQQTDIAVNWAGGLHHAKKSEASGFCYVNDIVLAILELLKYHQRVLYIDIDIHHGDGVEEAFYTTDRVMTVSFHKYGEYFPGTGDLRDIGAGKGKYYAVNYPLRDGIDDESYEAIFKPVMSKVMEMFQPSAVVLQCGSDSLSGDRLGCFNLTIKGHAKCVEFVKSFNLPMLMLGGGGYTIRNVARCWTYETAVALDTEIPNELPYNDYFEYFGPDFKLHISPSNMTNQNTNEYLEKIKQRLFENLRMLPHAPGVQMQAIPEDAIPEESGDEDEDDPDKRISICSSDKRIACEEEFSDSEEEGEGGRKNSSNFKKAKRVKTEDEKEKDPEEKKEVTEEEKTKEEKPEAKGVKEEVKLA
Experimental: Assay 2. The following protocol was also used to assay the compounds of the invention. In the assay, the buffer used was 25 mM HEPES, pH 8.0, 137 mM NaCl, 2.7 mM […], 1 mM MgCl2 and the substrate was Boc-Lys(Ac)-AMC in a 50 mM stock solution in DMSO. The enzyme stock solution was 4.08 μg/mL in buffer. The compounds were pre-incubated (2 μl in DMSO diluted to 13 μl in buffer for transfer to assay plate) with enzyme (20 μl of 4.08 μg/ml) for 10 minutes at room temperature (35 μl pre-incubation volume). The mixture was pre-incubated for 5 minutes at room temperature. The reaction was started by bringing the temperature to 37° C. and adding […] substrate. Total reaction volume was 50 μl. […] A plate was incubated in the dark for 10 minutes at room temperature before reading (λEx=360 nm, λEm=470 nm, Cutoff filter at 435 nm). Assay 2 was used to measure HDAC activity of compounds 604-617 (Table 5). HDAC activity of the remaining compounds was measured by assay 1.

[5] = test system: acetyl-H3 in T24 human bladder cancer cells; experiment: Histone H3 acetylation assay (anti-acetyl-H3, Amplex-Red fluorescence, normalized to Alamar Blue); format: cell-based; details: T-24, 16 h incubation, read-out: H3 Ac t24
Experimental: T24 human bladder cancer cells growing in culture are incubated with HDAC inhibitors for 16 h. Cell viability is determined by adding 10 μl Alamar Blue (BioSource, DAL1100). Cells are washed once with PBS and fixed with methanol precooled to −20° C. for 10 min. The cells are then washed twice in PBS. The fixed cells are blocked with 50 μl of PBS+0.1% Triton X-100. Cells are probed with rabbit-anti-acetyl-H3 (Upstate #06-599) as the primary antibody and then with goat-anti-rabbit-HRP (Sigma #A-0545) as the secondary antibody. Fluorescence is read by fluorometer at Ex: 550, Em: 610, Cutoff: 590 (Auto PMT, 15 reads/well) after addition of Amplex-Red. Fluorescence signal is normalized against cell viability derived from Alamar Blue. Maximum acetylation signal of MS-275 (fluorescence unit) is measured as Emax.

[6] = molecular target: T1, cloned recombinant human HDAC-1 (Homo sapiens, UniProt Q13547); experiment: Human HDAC-1 enzyme inhibition, Assay 1 ([3H]-acetylated histone substrate, scintillation counting); format: biochemical; details: read-out: Human HDAC-1 IC50
T1 construct: made in house; host or cells: Baculovirus insect cell expression system
T1 sequence (Q13547 whole entry): as above
Outline: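 Recombinant human HDAC-1 from baculovirus-infected insect cells, preincubated with compound 30 min at 4° C. before reaction. Released [3H]-acetic acid extracted with ethyl acetate and counted by scintillation. IC50 taken from dose-response curves as concentration giving half-maximal inhibition.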

[7] = T-24, Table 5E, read-out: H4 Ac (T24) EC50
[8] = HCT-116, 72 h, Table 5E, HCT116 cells, 72 hours
[9] = T-24, Table 5c, read-out: H4Ac (T24) EC50
[10] = HCT-116, 72 h, Table 5c, HCT116 cells, 72 hours
[11] = T-24, Table 5a, read-out: H4Ac (T24) EC50
[12] = HCT-116, 72 h, Table 5a, HCT116 cells, 72 hours

EC50 [1, 7]: 1 µM | IC50 [2, 8]: 0.6 µM
Structure (SMILES): Nc1ccccc1NC(=O)c1ccc(Cn2c(=O)[nH]c3ccccc3c2=O)cc1 [Cpd 157, N-(2-Amino-phenyl)-4-(2,4-dioxo-1,4-dihydro-2H-quinazolin-3-ylmethyl)-benzamide]
inhibition in vivo at 20 mg/kg [3]: 66%

IC50 ([2]; HCT-116, HCT116 cells): 3 µM | IC50 [4]: 0.3 µM
Structure (SMILES): Nc1ccccc1NC(=O)c1ccc(N2CC[C@@H](Nc3cccnc3)C2)cc1 [compound 605, (R)-N-(2-aminophenyl)-4-(3-(pyridin-3-ylamino)pyrrolidin-1-yl)benzamide]
EC50 [5]: 12 µM

IC50 ([2]; HCT-116, HCT116 cells): 0.7 µM | IC50 [4]: 0.23 µM
Structure (SMILES): Nc1ccccc1NC(=O)c1ccc(N2CC[C@H](Sc3ccccn3)C2)cc1 [compound 617, (S)-N-(2-aminophenyl)-4-(3-(pyridin-2-ylthio)pyrrolidin-1-yl)benzamide]
EC50 [5]: 2 µM

EC50 [1, 9]: 15 µM | IC50 ([6]; Table 5c): 0.4 µM | IC50 [2, 10]: 2 µM
Structure (SMILES): Nc1ccccc1NC(=O)/C=C/c1ccc(NCc2cccc(OC(F)(F)F)c2)nc1 [Cpd 98, N-(2-aminophenyl)-3-[6-(3-trifluoromethoxy-benzylamino)-pyridin-3-yl]-acrylamide]
inhibition in vivo at 20 mg/kg [3]: 52%

IC50 ([2]; HCT-116, HCT116 cells): 0.7 µM | IC50 [4]: 0.4 µM
Structure (SMILES): Nc1ccccc1NC(=O)c1ccc(N2CC[C@H](Oc3cccnc3)C2)cc1 [compound 606, (S)-N-(2-aminophenyl)-4-(3-(pyridin-3-yloxy)pyrrolidin-1-yl)benzamide]
EC50 [5]: 7 µM

EC50 [1, 7]: 2 µM | IC50 [2, 8]: 0.8 µM
Structure (SMILES): COc1ccc(CCNc2ccc(C(=O)Nc3ccccc3N)cn2)cc1 [Cpd 168]
inhibition in vivo at 40 mg/kg [3]: 26%

EC50 [1, 7]: 5 µM | IC50 ([6]; Table 5E): 2 µM | IC50 [2, 8]: 1 µM
Structure (SMILES): COc1ccc(CNc2ccc3cc(C(=O)Nc4ccccc4N)ccc3n2)cc1 [Cpd 87]
inhibition in vivo at 40 mg/kg [3]: 30%

EC50 [1, 11]: 5 µM | IC50 ([6]; Table 5a): 2 µM | IC50 [2, 12]: 0.7 µM
Structure (SMILES): Nc1nc(NCc2ccc(C(=O)Nc3ccccc3N)cc2)nc(N2CCOCC2)n1 [Cpd 9, 4-[(4-amino-6-morpholin-4-yl-[1,3,5]-triazin-2-ylamino)-methyl]-N-(2-amino-phenyl)-benzamide]
inhibition in vivo at 40 mg/kg [3]: 51%

EC50 [1, 7]: < 1 µM | IC50 ([6]; Table 5E): 0.3 µM | IC50 [2, 8]: 0.4 µM
Structure (SMILES): Nc1ccccc1NC(=O)c1ccc(Cn2cnc3ccccc3c2=O)cc1 [Cpd 154, N-(2-Amino-phenyl)-4-(4-oxo-4H-quinazolin-3-ylmethyl)-benzamide]
inhibition in vivo at 20 mg/kg [3]: 23%

IC50 ([2]; HCT-116, HCT116 cells): 8 µM | IC50 [4]: 0.1 µM
Structure (SMILES): Nc1ccccc1NC(=O)c1ccc(N2CC[C@H](Oc3ccc4c(c3)OCO4)C2)cc1 [compound 614, (S)-N-(2-aminophenyl)-4-(3-(benzo[d][1,3]dioxol-5-yloxy)pyrrolidin-1-yl)benzamide]
EC50 [5]: 1 µM

IC50 ([2]; HCT-116, HCT116 cells): 0.3 µM | IC50 [4]: 0.2 µM
Structure (SMILES): Nc1ccccc1NC(=O)c1ccc(N2CC[C@H](Nc3ccccc3)C2)cc1 [compound 608, (S)-N-(2-aminophenyl)-4-(3-(phenylamino)pyrrolidin-1-yl)benzamide]
EC50 [5]: 0.2 µM

EC50 [1, 11]: 1 µM | IC50 ([6]; Table 5a): 1 µM | IC50 [2, 12]: 0.4 µM
Structure (SMILES): Nc1nc(NCc2ccc(C(=O)Nc3ccccc3N)cc2)nc(NC2CCCC2)n1 [Cpd 16]
inhibition in vivo at 40 mg/kg [3]: 50%

EC50 [1, 11]: 3 µM | IC50 ([6]; Table 5a): 0.5 µM | IC50 [2, 12]: 0.2 µM
Structure (SMILES): Nc1nc(NCc2ccc(C(=O)Nc3ccccc3N)cc2)nc(N2CCCCC2)n1 [Cpd 15, N-(2-amino-phenyl)-4-[(4-amino-6-piperidin-1-yl [1,3,5]-triazin-2-ylamino)-methyl]-benzamide]
inhibition in vivo at 40 mg/kg [3]: 26%

IC50 ([2]; HCT-116, HCT116 cells): 0.8 µM | IC50 [4]: 0.06 µM
Structure (SMILES): Nc1ccccc1NC(=O)c1ccc(N2CC[C@H](Nc3cccnc3)C2)cc1 [compound 604, (S)-N-(2-aminophenyl)-4-(3-(pyridin-3-ylamino)pyrrolidin-1-yl)benzamide]
EC50 [5]: 8 µM

EC50 [1, 9]: 1 µM | IC50 [2, 10]: 2 µM
Structure (SMILES): COc1cc(NCc2ccc(/C=C/C(=O)Nc3ccccc3N)cc2)cc(OC)c1OC [Cpd 106, N-(2-aminophenyl)-3-{4-[(3,4,5-trimethoxy-phenylamino)-methyl]-phenyl}-acrylamide]
inhibition in vivo at 20 mg/kg [3]: 80%

EC50 [1, 7]: 1 µM | IC50 [2, 8]: 0.2 µM
Structure (SMILES): Nc1ccccc1NC(=O)c1ccc(CSc2nc3ccccc3[nH]2)cc1 [Cpd 126, N-(2-Amino-phenyl)-4-(1H-benzimidazol-2-ylsulfanylmethyl)-benzamide]
inhibition in vivo at 40 mg/kg [3]: 62%

IC50 ([2]; HCT-116, HCT116 cells): 0.3 µM | IC50 [4]: 0.09 µM
Structure (SMILES): COc1cc(O[C@H]2CCN(c3ccc(C(=O)Nc4ccccc4N)cc3)C2)cc(OC)c1OC [compound 613, (S)-N-(2-aminophenyl)-4-(3-(3,4,5-trimethoxyphenoxy)pyrrolidin-1-yl)benzamide]
EC50 [5]: 1 µM
